Test results from US20050003500A1, “(2S, 3S) -2,3-butanediol dehydrogenase” (Daicel Chemical Industries, Ltd., priority 2003, published 2005).

Legend:
[1] = system: (2S,3S)-2,3-butanediol dehydrogenase; test: Dehydrogenase (oxidative) activity of the purified enzyme on various substrates, NAD+ as coenzyme; assay type: biochemical, Zoogloea ramigera; details: oxidation; substrate 50 mM, standard reaction condition; activity on (2S,3S)-2,3-butanediol taken as 100
Procedure: (§1) React a reaction solution containing 50 mM glycine-sodium hydroxide buffer (pH 11.0), 2.5 mM NAD^+, 50 mM (2S,3S)-2,3-butanediol and the enzyme at 30° C. Then, measure the increase of absorbance at 340 nm relative to the increase of NADH. 1 U is defined as the amount of enzyme that catalyzes a 1-μmol increase of NADH in 1 minute.
The dehydrogenase activity of the enzyme obtained in Example 1 was measured against various substrates (50 mM) under the standard reaction condition.

[2] = system: (2S,3S)-2,3-butanediol dehydrogenase; test: Activation of (2S,3S)-2,3-butanediol dehydrogenase activity by divalent ions; assay type: biochemical, Zoogloea ramigera; details: divalent ion 1 mM; activity in the absence of the ions taken as 100
Procedure: as §1
The activation effect by a divalent ion can be measured as described above by adding 1 mM of a metal ion into the above-mentioned reaction solution.

[3] = system: (2S,3S)-2,3-butanediol dehydrogenase; test: Reductive activity of the purified enzyme on various substrates, NADH as coenzyme; assay type: biochemical, Zoogloea ramigera; details: reduction; substrate 50 mM, standard reaction condition; activity on 2,3-butanedione taken as 100
Procedure: React a reaction solution containing 50 mM potassium phosphate buffer (pH 5.5), 0.2 mM NADH, 20 mM 2,3-butanedione and the enzyme at 30° C. Then, measure the decrease of absorbance at 340 nm relative to the decrease of NADH. 1 U is defined as the amount of enzyme that catalyzes a 1-μmol decrease of NADH in 1 minute. The protein can be quantified by a dye binding method using BioRad protein assay kit.
The reductive activity of the enzyme obtained in Example 1 was measured on various substrates (50 mM) under the standard reaction condition.

[4] = target: L-2,3-butanediol dehydrogenase (Corynebacterium glutamicum, UniProt Q9ZNN8); details: Biosci. Biotechnol. Biochem. 65, 1876-1878 (2001); cited from earlier work
Chain of L-2,3-butanediol dehydrogenase (Q9ZNN8 whole entry): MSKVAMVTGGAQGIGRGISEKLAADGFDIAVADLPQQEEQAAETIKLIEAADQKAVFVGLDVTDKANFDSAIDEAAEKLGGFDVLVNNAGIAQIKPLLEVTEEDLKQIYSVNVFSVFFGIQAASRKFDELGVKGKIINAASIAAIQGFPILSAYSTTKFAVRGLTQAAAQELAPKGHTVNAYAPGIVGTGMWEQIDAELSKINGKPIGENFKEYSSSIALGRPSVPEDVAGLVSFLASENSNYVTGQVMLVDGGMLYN

[5] = target: acetoin reductase (Klebsiella pneumoniae, UniProt Q48436); details: J. Ferment. Technol. 83, 32-37 (1997); cited from earlier work
Chain of acetoin reductase (Q48436 whole entry): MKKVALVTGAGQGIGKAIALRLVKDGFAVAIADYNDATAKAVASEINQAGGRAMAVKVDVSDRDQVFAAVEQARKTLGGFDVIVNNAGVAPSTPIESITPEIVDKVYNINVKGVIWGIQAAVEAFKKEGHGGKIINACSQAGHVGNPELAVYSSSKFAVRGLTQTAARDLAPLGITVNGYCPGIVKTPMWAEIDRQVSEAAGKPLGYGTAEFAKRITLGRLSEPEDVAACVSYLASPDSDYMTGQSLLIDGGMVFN

[6] = (2S,3S)-2,3-butanediol oxidation activity of enzyme preparations from Zoogloea ramigera; assay type: biochemical; details: fraction after each purification step
Procedure: as §1
Zoogloea ramigera strain DSM287 was cultured at 28° C. for 54 hours in 1.2 L of YPD medium that uses glycerol as a carbon source, and wet bacterial cells were prepared by centrifugation. Approximately 30 g of the obtained wet bacterial cells were suspended in a 50 mL solution of 50 mM potassium phosphate buffer (pH8.0) and 1 mM 2-mercaptoethanol. The cells were then disrupted using Multi-beads shocker (Yasui Kikai), and bacterial cell debris was removed by centrifugation to obtain cell-free extract. Protamine sulfate was added to this cell-free extract and nucleic acids were removed by centrifugation to yield the supernatant. Ammonium sulfate was added to this supernatant up to 30% saturation, and this was applied onto phenyl-sepharose column (2.6 cm×10 cm) equilibrated with standard buffer (10 mM Tris-HCl buffer (pH8.0) and 0.01% 2-mercaptoethanol) comprising 30% ammonium sulfate. After washing the column with the same buffer, gradient elution was performed with 30% to 0% saturated ammonium sulfate. […]

| Molecule | Relative activity (%) [1] [%] | Relative activity (%) [2] [%] | other results |
| --- | --- | --- | --- |
| C[C@H](O)CO [(S)-1,2-propanediol] | 55.3 |  |  |
| [Co+2] [Co^2+] |  | 106 |  |
| CC(=O)C(C)O (stereo not drawn) [Acetoin] | 0.26 |  | Relative activity (%) [3]: 58.9% |
| (S)-2-butanol | 43.3 |  |  |
| [Mn+2] [Mn^2+] |  | 104 |  |
| [Ba+2] [Ba^2+] |  | 112 |  |
| [Ni+2] [Ni^2+] |  | 104 |  |
| CCC(C)O (stereo not drawn) [2-butanol] |  |  | activity of the enzyme towards the substrate [4]: lacks activity |
| [Cu+2] [Cu^2+] |  | 107 |  |
| C[C@@H](O)CO [(R)-1,2-propanediol] | 0.90 |  |  |
| C[C@@H](O)[C@@H](C)O [(2R,3R)-2,3-butanediol] | 2.89 |  |  |
| [Mg+2] [Mg^2+] |  | 110 |  |
| [Ca+2] [Ca^2+] |  | 113 |  |
| OC[C@@H](O)CCl [(R)-3-chloro-1,2-propanediol] | 3.62 |  |  |
| CC(O)C(C)O (stereo not drawn) [meso-2,3-butanediol] | 0 |  | action of the enzyme on the substrate [5]: specifically act |
| (R)-2-butanol | 1.11 |  |  |
| CC(=O)C(C)=O [2,3-Butanedione] |  |  | Relative activity (%) [3]: 100% |
| OC[C@H](O)CCl [(S)-3-chloro-1,2-propanediol] | 0 |  |  |
| [Zn+2] [Zn^2+] |  | 109 |  |
| C[C@H](O)[C@H](C)O [(2S,3S)-2,3-butanediol] | 100 |  | action of the enzyme on the substrate [5]: doesnot act |
| Hydroxyapatite |  |  | Specific activity (U/mg) [6]: 60.9 U/mg |
